pIC50: −log10 of the molar value.
What was measured:
Cdc7 = Cdc7 (Homo sapiens, UniProt O00311); experiment: Cdc7 biochemical assay, ADPGlo assay format
Protocol: The biochemical activity of compounds was determined by incubation with specific enzymes and substrate, followed by quantification of the ADP product. Compounds were 4-fold serially diluted from 10 to 0.0006 uM; in the case of the pre-incubation step, the enzyme is added to the inhibitor solution and the mixture is left to incubate for 30 minutes at room temperature (r.t.). The reaction started with the addition of the substrate and the ATP, when the enzyme was already present in the preincubation step, or substrate, ATP and enzyme when the preincubation step was not present. The concentrations of ATP, substrate and reaction buffer are described above. The assays were run in a robotized format on 384-well plates. […] At the end of the incubation time, an equal volume of ADPGlo Reagent 1 (Promega) was added to stop the reaction and to remove all unreacted ATP. After 60 minutes, an equal volume of ADPGlo Reagent 2 (Promega) was added to convert ADP in ATP and then ATP in light by luciferase reaction.
y=bottom+(top−bottom)/(1+10^((log IC50−x)*slope))
where x is the logarithm of the inhibitor concentration, y is the response; y starts at bottom and goes to top with a sigmoid shape.

[1] = target: T1, aldehyde oxidases (human liver cytosol) (Homo sapiens, UniProt Q06278); format: in vitro ADME; conditions: human liver cytosol 1 mg/mL, 1 μM compound; for HLC % remaining (1 h incub.): 60 min incubation; for HLC % remaining (1 h incub.) / HLC T½ min: pH 7.4, 37° C.; for IntCl (Intrinsic Clearance): half-life approach
T1 construct: added to human liver cytosol (1 mg/mL protein content); from tissue; host or cells: human liver cytosol
T1 sequence (Q06278 whole entry): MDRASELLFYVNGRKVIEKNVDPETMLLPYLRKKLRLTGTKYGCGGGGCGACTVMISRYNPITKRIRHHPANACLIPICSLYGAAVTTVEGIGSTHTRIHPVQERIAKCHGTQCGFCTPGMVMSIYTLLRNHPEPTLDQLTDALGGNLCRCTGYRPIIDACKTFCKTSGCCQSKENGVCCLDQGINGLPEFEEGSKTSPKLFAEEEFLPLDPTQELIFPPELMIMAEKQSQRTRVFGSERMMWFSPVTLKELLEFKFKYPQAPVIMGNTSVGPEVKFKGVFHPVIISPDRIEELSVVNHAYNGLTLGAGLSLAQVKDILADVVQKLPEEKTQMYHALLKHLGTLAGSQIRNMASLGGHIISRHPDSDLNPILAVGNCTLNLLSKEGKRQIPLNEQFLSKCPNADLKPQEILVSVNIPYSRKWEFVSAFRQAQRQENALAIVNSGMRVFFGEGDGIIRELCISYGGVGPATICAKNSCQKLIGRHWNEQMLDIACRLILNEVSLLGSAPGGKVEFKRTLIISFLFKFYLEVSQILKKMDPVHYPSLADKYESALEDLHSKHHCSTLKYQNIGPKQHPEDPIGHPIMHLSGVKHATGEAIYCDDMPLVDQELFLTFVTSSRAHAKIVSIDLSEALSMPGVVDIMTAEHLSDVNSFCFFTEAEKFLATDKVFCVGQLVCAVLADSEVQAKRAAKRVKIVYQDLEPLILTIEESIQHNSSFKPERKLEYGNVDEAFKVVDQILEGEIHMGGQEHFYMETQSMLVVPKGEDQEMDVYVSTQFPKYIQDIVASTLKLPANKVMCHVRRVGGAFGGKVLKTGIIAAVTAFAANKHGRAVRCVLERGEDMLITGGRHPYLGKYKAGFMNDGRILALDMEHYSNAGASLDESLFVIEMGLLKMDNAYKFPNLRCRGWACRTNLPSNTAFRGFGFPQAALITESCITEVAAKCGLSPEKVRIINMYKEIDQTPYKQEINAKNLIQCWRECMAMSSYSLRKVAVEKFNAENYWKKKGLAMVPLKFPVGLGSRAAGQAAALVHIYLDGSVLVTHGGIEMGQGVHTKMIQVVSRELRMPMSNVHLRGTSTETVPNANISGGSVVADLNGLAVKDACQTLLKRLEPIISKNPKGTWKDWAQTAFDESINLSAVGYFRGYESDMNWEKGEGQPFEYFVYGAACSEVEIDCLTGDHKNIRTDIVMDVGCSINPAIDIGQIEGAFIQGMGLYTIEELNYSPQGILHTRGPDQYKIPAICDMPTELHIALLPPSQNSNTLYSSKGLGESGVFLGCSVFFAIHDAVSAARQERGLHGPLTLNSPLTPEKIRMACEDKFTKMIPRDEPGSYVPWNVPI
Protocol: The aldehyde oxidases involvement in the metabolism of the test item was determined by comparison of the intrinsic clearance values in the presence and absence of aldehyde oxidases inhibitor hydralazine hydrochloride. The purpose of the study was to evaluate the in-vitro intrinsic clearance, the metabolic stability towards aldehyde oxidases (AO) activity and the metabolism of the test item in human liver cytosol. The intrinsic clearance was determined using the half-life approach, by measuring the substrate disappearance along 60 minutes incubation with human liver cytosol. Incubations were performed at the concentration of 1 μM. […] HPLC-MS/MS was used for the detection of the compound left over during the incubation. For intrinsic clearance determination samples were analyzed by high performance liquid chromatography (HPLC) on-line with mass spectrometry (MS) equipment. For the determination of aldehyde oxidases activity (i.e. positive control) of cytosol, phthalazine was incubated with human liver cytosol in presence and absence of the aldehyde oxidases inhibitor. On the day of the incubation, the compound was dissolved in DMSO at the concentration of 10 mM. Aliquots of this solution were added to the test system to a final concentration of […]. The percentage of DMSO in the final incubates was […]. Aliquots of the test item were added to human liver cytosol (1 mg/mL protein content) in Dulbecco's buffer, pH 7.4 at 37° C., to reach final concentration of 1 μM. Incubations were performed in a 48-well plate, under shaking. At 0, 5, 10, 20, 30 and 60 minutes incubation, 50 μL aliquots of the incubate were sampled, poured in 80 μL of ice-cold acetonitrile and 20 μL of 1 μM warfarin in acetonitrile (injection control) and centrifuged at 2500 rpm for 20 minutes. The supernatant was immediately analysed by LC-MS/MS.
The test item was incubated in parallel, in duplicate, at the concentration of 1 μM in Dulbecco's buffer, pH 7.4 for 60 min at 37° C. in the presence of 10 μM hydralazine hydrochloride (aldehyde oxidases inhibitor).
The chemical stability of the test item was checked in parallel by incubating the test item in single at the concentration of 1 μM in Dulbecco's buffer, pH 7.4 for 60 min at 37° C. (negative control).
The intrinsic clearance (CLint) was calculated using the half-life approach. Half-life and CLint were determined from the concentration (area counts) remaining at the different sampling points using the LC-MS/MS method. By plotting the natural logarithmic area of the compound remaining against the time, the slope was calculated by linear regression analysis and converted into the half-life (t½) and CLint expressed as μL/min/mg protein according to the following formulae: […]

Cdc7, sequence (O00311 whole entry): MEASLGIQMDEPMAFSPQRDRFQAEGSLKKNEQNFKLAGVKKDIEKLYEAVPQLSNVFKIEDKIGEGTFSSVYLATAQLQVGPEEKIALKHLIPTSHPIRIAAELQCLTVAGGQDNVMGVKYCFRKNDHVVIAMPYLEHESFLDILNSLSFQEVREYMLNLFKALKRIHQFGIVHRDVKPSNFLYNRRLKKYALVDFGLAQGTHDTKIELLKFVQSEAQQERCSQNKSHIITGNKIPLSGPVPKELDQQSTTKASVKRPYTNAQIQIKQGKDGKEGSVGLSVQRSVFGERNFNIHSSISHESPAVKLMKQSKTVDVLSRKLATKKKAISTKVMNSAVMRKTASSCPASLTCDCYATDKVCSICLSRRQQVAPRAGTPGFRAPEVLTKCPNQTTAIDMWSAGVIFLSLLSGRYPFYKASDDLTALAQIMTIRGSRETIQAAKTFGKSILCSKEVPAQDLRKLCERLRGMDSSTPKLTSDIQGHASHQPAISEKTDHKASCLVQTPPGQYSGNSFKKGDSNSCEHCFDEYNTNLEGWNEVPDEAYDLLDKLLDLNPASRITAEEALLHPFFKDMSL
Cdc7, sequence (Q9UBU7 whole entry partner): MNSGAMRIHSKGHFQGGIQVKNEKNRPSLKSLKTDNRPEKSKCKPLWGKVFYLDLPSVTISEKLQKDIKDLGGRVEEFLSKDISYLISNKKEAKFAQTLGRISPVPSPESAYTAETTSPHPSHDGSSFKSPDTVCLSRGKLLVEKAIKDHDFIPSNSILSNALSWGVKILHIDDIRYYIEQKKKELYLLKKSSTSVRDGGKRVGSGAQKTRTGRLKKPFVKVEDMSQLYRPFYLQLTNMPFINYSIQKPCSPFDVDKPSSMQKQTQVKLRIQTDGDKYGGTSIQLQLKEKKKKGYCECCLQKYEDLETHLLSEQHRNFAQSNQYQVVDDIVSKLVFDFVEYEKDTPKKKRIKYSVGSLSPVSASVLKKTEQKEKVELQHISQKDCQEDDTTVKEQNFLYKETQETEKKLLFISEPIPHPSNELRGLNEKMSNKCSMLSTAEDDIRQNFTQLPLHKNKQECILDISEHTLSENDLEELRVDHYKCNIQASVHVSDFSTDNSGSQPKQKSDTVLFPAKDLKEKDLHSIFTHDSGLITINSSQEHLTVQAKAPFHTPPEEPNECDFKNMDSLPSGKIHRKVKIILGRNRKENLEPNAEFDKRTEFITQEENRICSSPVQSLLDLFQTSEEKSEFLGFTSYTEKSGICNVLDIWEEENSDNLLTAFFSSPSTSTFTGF

Structure (SMILES): NC(=O)c1cc(-c2ccnc3[nH]ccc23)[nH]c1-c1ccc(Cl)cc1Cl [compound 46, 2-(2,4-dichlorophenyl)-5-(1H-pyrrolo[2,3-b]pyridin-4-yl)-1H-pyrrole-3-carboxamide]
- pIC50 (Cdc7): 9.00
- HLC % remaining (1 h incub.) [1]: 100%
- IntCl (Intrinsic Clearance) [1]: 2.9 μL/min/mg protein
- HLC T½ min [1]: 3.98 h

Structure (SMILES): NC(=O)c1cc(-c2c[nH]nc2C(F)(F)F)[nH]c1-c1ccc(Cl)cc1Cl [compound 48, 2-(2,4-dichlorophenyl)-5-[3-(trifluoromethyl)-1H-pyrazol-4-yl]-1H-pyrrole-3-carboxamide]
- pIC50 (Cdc7): 6.73
- HLC % remaining (1 h incub.) [1]: 100%
- IntCl (Intrinsic Clearance) [1]: 2.9 μL/min/mg protein
- HLC T½ min [1]: 3.98 h

Structure (SMILES): Cc1ccc(-c2[nH]c(-c3cn[nH]c3)cc2C(N)=O)c(F)c1 [compound 49, 2-(2-fluoro-4-methylphenyl)-5-(1H-pyrazol-4-yl)-1H-pyrrole-3-carboxamide]
- pIC50 (Cdc7): 7.74
- HLC % remaining (1 h incub.) [1]: 100%
- IntCl (Intrinsic Clearance) [1]: 2.9 μL/min/mg protein
- HLC T½ min [1]: 3.98 h

From patent US20240217969A1, “SUBSTITUTED PYRROLE CARBOXAMIDES, PROCESS FOR THEIR PREPARATION AND THEIR USE AS KINASE INHIBITORS” (priority 2021, published 2024)
